Source: patent US10676514B2, “CDCA1-derived peptide and vaccine containing same” (ONCOTHERAPY SCIENCE, INC., priority 2014, dated 2020)
Entries after “also recorded” stand apart in the source; their conditions may differ.

How the values were obtained:
[1] = test system: peptide-pulsed C1R-A33; assay: IFN-gamma ELISA of CTL lines and CTL clones (HLA-A*3303); assay type: cell-based, human
Description: (§1) CTLs were propagated in culture using methods similar to those disclosed by Riddell et al. (Walter E A et al., N Engl J Med 1995, 333(16): 1038-44; Riddell S R et al., Nat Med 1996, 2(2): 216-23). The CTLs were co-cultured in a total of 25 ml AIM-V medium containing 5% AS (AIM-V/5% AS) and 40 ng/ml anti-CD3 antibody with two types of Mitomycin C-treated human B lymphoblastoid cell lines at 5×10^6 cells/flask. One day after beginning of the culturing, 120 IU/ml IL-2 was added to the culture. On days 5, 8 and 11, a fresh AIM-V/5% AS medium containing 30 IU/ml IL-2 was added to the culture (Tanaka H et al., Br J Cancer 2001, 84(1): 94-9; Umano Y et al., Br J Cancer 2001, 84(8): 1052-7; Uchida N et al., Clin Cancer Res 2004, 10(24): 8577-86; Suda T et al., Cancer Sci 2006, 97(5): 411-9; Watanabe T et al., Cancer Sci 2005, 96(8): 498-506).
(§2) Dilution of CTLs was carried out to make 0.3, 1 and 3 cells/well in 96 round-bottomed microtiter plates (Nalge Nunc International). The CTLs were co-cultured with two types of Mitomycin C-treated human B lymphoblastoid cell lines at 1×10^4 cells/well in a total of 150 micro-l/well AIM-V/5% AS medium with 30 ng/ml anti-CD3 antibody and 125 IU/ml IL-2. Ten days later, IL-2 was added to the medium at 50 micro-l/well to reach a final concentration of 125 IU/ml. On day 14, the CTL activity was tested, and the CTL clones were propagated using the same method as described above (Uchida N et al., Clin Cancer Res 2004, 10(24): 8577-86; Suda T et al., Cancer Sci 2006, 97(5): 411-9; Watanabe T et al., Cancer Sci 2005, 96(8): 498-506).
(§3) Specifically, peptide-pulsed C1R-A33 (1×10^4 cells/well) was prepared as the stimulator cell. The induced CTLs, i.e., CTL lines and CTL clones, were used as the responder cell. The IFN-gamma ELISPOT assay and IFN-gamma ELISA were performed according to the manufacturer's manual.

[2] = test system: COS7 cells transfected with CDCA1 and HLA-A*3303; assay: Specific CTL activity against target cells expressing CDCA1 and HLA-A*3303; assay type: cell-based, African green monkey; conditions: listed as CDCA1-A33-9-43
Source text: A cDNA encoding the open-reading frame of a target gene or HLA-A*3303 was amplified by PCR. The PCR-amplified product was cloned into an expression vector. Either or both of the target gene-expressing vector and the HLA-A*3303-expressing vector were transfected into COS7, which is a cell line negative for the target gene and HLA, using Lipofectamine 2000 (Invitrogen) following the manufacturer's recommended protocol. Two days after transfection, the transfected cells were harvested using versene (Invitrogen), and used as the target cell for CTL activity assay (5×10^4 cells/well).
The CTL clone established against CDCA1-A33-9-43 (SEQ ID NO: 27) was investigated for its ability to recognize target cells expressing CDCA1 and the HLA-A*3303 molecule. COS7 cells transfected with both full-length CDCA1 and the HLA-A*3303 gene (a specific model of target cells expressing CDCA1 and the HLA-A*3303 gene) were prepared as the target cell. COS7 cells transfected with either full-length CDCA1 or HLA-A*3303 were prepared as the control.

[3] = test system: peptide-pulsed C1R-A33 cells; assay: IFN-gamma ELISPOT assay of peptide-induced CTLs (HLA-A*3303); assay type: cell-based, human; conditions: CTLs induced from HLA-A*3303-positive donors, peptide-pulsed C1R-A33 vs control
Source text: (§4) Monocyte-derived dendritic cells (DCs) were used as the antigen-presenting cell to induce a cytotoxic T lymphocyte (CTL) response against peptides presented on human leukocyte antigens (HLAs). As described in the other sections, DCs were generated in vitro (Nakahara S et al., Cancer Res 2003, 63(14): 4112-8). Specifically, peripheral-blood mononuclear cells isolated from healthy volunteers (HLA-A*3303-positive) with the Ficoll-Paque plus solution (Pharmacia) were separated by attaching to plastic tissue culture dishes (Becton Dickinson) and concentrated as a monocyte fraction. The monocyte-concentrated population was cultured in the presence of 1000 IU/ml granulocyte macrophage colony-stimulating factor (R&D System) and 1000 IU/ml interleukin(IL)-4 (R&D System) in an AIM-V medium (Invitrogen) containing 2% heat-inactivated autologous serum (AS). After seven days of culturing, the cytokine-induced DCs were pulsed with 20 micro-g/ml each of the synthesized peptides in an AIM-V medium at 37 degrees C. for three hours in the presence of 3 micro-g/ml beta 2-microglobulin. The generated cells appeared to express on their cell surface DC-associated molecules such as CD80, CD83, CD86 and HLA class II (data not shown). Next, these peptide-pulsed DCs were inactivated by X-ray irradiation (20 Gy), and mixed in a 1:20 ratio with autologous CD8^+ T cells obtained by positive selection using the CD8 Positive Isolation Kit (Dynal). These culture products were seeded in a 48-well plate (Corning). Each well was made to contain 1.5×10^4 peptide-pulsed DCs, 3×10^5 CD8^+ T cells and 10 ng/ml IL-7 (R&D System) in 0.5 ml of the AIM-V/2% AS medium. Three days later, these culture products were added with a final concentration of 20 IU/ml IL-2 (CHIRON). On day 7 and day 14, T cells were further stimulated with peptide-pulsed autologous DCs. The DCs were prepared every time by the same method as above. On day 21, after the third peptide stimulation, CTLs were examined against the peptide-pulsed CIR-A33 cell by a human interferon (IFN)-gamma enzyme-linked immunospot (ELISPOT) assay (Tanaka H et al., Br J Cancer 2001, 84(1): 94-9; Umano Y et al., Br J Cancer 2001, 84(8): 1052-7; Uchida N et al., Clin Cancer Res 2004, 10(24): 8577-86; Suda T et al., Cancer Sci 2006, 97(5): 411-9; Watanabe T et al., Cancer Sci 2005, 96(8): 498-506).
as §3

[4] = test system: peptide-pulsed C1R-A03; assay: IFN-gamma ELISA of CTL lines and CTL clones (HLA-A*0301); assay type: cell-based, human
Description: as §1, §2
(§5) Specifically, peptide-pulsed C1R-A03 (1×10^4 cells/well) was prepared as the stimulator cell. The induced CTLs, i.e., CTL lines and CTL clones, were used as the responder cell. The IFN-gamma ELISPOT assay and IFN-gamma ELISA were performed according to the manufacturer's manual.

[5] = test system: peptide-pulsed C1R-A03; assay: IFN-gamma ELISPOT assay of peptide-induced CTLs (HLA-A*0301); assay type: cell-based, human; conditions: CTLs induced from HLA-A*0301-positive donors, peptide-pulsed C1R-A03 vs control
Source text: as §4, with “(HLA-A*0301-positive)” for “(HLA-A*3303-positive)”, “C1R-A03” for “CIR-A33 cell”
as §5

[6] = test system: peptide-pulsed C1R-A11 cells; assay: IFN-gamma ELISPOT assay of peptide-induced CTLs (HLA-A*1101); assay type: cell-based, human; conditions: CTLs induced from HLA-A*1101-positive donors, peptide-pulsed C1R-A11 vs control, listed as CDCA1-A11-9-343
Source text: as §4, with “(HLA-A*1101-positive)” for “(HLA-A*3303-positive)”, “C1R-A11 cells” for “CIR-A33 cell”
Specifically, peptide-pulsed C1R-A11 (1×10^4 cells/well) was prepared as the stimulator cell. The induced CTLs, i.e., CTL lines and CTL clones, were used as the responder cell. The IFN-gamma ELISPOT assay and IFN-gamma ELISA were performed according to the manufacturer's manual.

With “EVLHMIYMR (a peptide derived from CDCA1) [SEQ ID NO: 27]” the “IFN-gamma production of CTL clones” value ([1]; CTL clones by limiting dilution, peptide-pulsed C1R-A33, listed as CDCA1-A33-9-43) was “Potent IFN-gamma production”, the “IFN-gamma production of CTL lines” value ([1]; CTL lines, peptide-pulsed vs non-pulsed target cells, HLA-A*3303) was “potent IFN-gamma production” and the “specific CTL activity of CTL clone” value ([2]; COS7 cells transfected with both CDCA1 and HLA-A*3303) was “specific CTL activity; also recorded: potent CTL activity”. For the same sequence, the “specific CTL activity of CTL clone against control cells” value ([2]; COS7 cells transfected with either full-length CDCA1 or HLA-A*3303) was “a significant specific CTL activity was not shown; also recorded: a significant specific CTL activity was not detected” and the “peptide-specific CTL activity (IFN-gamma production)” value (“peptide-specific CTL activity” for short) [3] was “potent IFN-gamma production”.

With “KMKDTVQKLK (a peptide derived from CDCA1) [SEQ ID NO: 47]” the “IFN-gamma production of CTL clones” value ([4]; CTL clones by limiting dilution, peptide-pulsed C1R-A03, listed as CDCA1-A03-10-257) was “Potent IFN-gamma production”, the “IFN-gamma production of CTL lines” value ([4]; CTL lines, peptide-pulsed vs non-pulsed target cells, HLA-A*0301) was “potent IFN-gamma production” and the “peptide-specific CTL activity” value ([5]; listed as CDCA1-A03-10-257) was “potent IFN-gamma production; also recorded: significant specific CTL activity”.

“RLMIVKKEK (a peptide derived from CDCA1) [SEQ ID NO: 10]” was tested, and the “peptide-specific CTL activity” value [6] was “potent IFN-gamma production; also recorded: significant specific CTL activity” and the “peptide-specific CTL activity” value ([5]; listed as CDCA1-A03-9-343) was “no specific IFN-gamma production; also recorded: specific IFN-gamma production was not observed”.
